Marks after values point to notes of the source that are not given here.
Tests used:
[1] = Ferric-reducing antioxidant power (FRAP) assay; type: biochemical; settings: mean ± SD, triplicate
Protocol: The capability of the extracts derived from the adult V. coerulea plant and its protocorms to reduce ferric was evaluated through a FRAP assay, which was modified from the methods described by Saeio et al. (2011). Initially, 20 µL of the sample solution was combined with 180 µL of the FRAP solution, prepared by mixing 0.3 M acetate buffer pH 3.6, 10 mM TPTZ in 40 mM HCl solution and 20 mM ferric chloride solution. After incubating the resulting mixture at room temperature for 5 min, the absorbance was measured at 595 nm using a multimode microplate reader (BMG Labtech GmbH, Ortenberg, Germany). The findings were then expressed as the percentage of ferric reducing ability, calculated according to the subsequent equation:Ferric reducing abilities (%) = [(a − b)/a] × 100,(2) where a is the UV absorbance of the combination without a sample, while b is the UV absorbance of the combination with a sample. Various concentrations of each extract were evaluated, and their ferric reducing abilities were plotted against their logarithmic concentrations to generate dose–response curves. […] L-ascorbic acid was used as the positive control. The analysis was performed in triplicate.

[2] = DPPH radical scavenging assay; type: biochemical; settings: mean ± SD, triplicate; ND = not determined due to low potency
Protocol: The capability of the extracts derived from the adult V. coerulea plant and its protocorms to scavenge DPPH radicals was evaluated through a DPPH assay, which was modified from the methods described by Brem et al. (2004). Initially, 20 µL of the sample solution was combined with 180 µL of a DPPH solution, prepared by dissolving […] DPPH in DI water. After incubating the resulting mixture in darkness at room temperature for 30 min, the absorbance was measured at 520 nm using a multimode microplate reader (BMG Labtech GmbH, Ortenberg, Germany). […] Various concentrations of each extract were evaluated, and their DPPH inhibitions were plotted against their logarithmic concentrations to generate dose–response curves. […] L-ascorbic acid was used as the positive control. The analysis was performed in triplicate.

[3] = biological target: collagenase from Clostridium histolyticum; assay: Collagenase (MMP-1) inhibition, spectrophotometric assay with FALGPA; type: biochemical; settings: mean ± SD, triplicate; ND = not determined due to low potency
Protocol: The capability of the extracts derived from the adult V. coerulea plant and its protocorms to inhibit the MMP-1 activities was evaluated through a spectrophotometric assay, which was modified from the methods described by Thring et al. (2009). Initially, an MMP-1 solution at a concentration of 0.1 units/mL was prepared, comprising MMP-1 sourced from C. histolyticum, along with 400 mM NaCl, 10 mM CaCl2, and 50 mM tricine buffer pH 7.5. Subsequently, 20 µL of the sample solution was combined with 20 µL of the MMP-1 solution and 80 µL of Tricine buffer pH 7.5. […] Immediately, the absorbance was measured kinetically at 340 nm for a duration of 20 min using a multimode microplate reader (BMG Labtech GmbH, Ortenberg, Germany). The findings were then expressed as the percentage of MMP-1 inhibition, calculated according to the subsequent equation:MMP-1 inhibition (%) = [(a − b)/a] × 100,(3) where a is the reaction rate of the combination without a sample, while b is the reaction rate of the combination with a sample. Various concentrations of each extract were evaluated, and their MMP-1 inhibitions were plotted against their logarithmic concentrations to generate dose–response curves. The IC50 values were calculated from the curves using GraphPad Prism (version 8.0.2, GraphPad Software, Boston, MA, USA). […]

[4] = biological target: T1, porcine pancreatic elastase (Sus scrofa, UniProt P00772); assay: Elastase inhibition, spectrophotometric assay; type: biochemical; settings: mean ± SD, triplicate; ND = not determined due to low potency
T1 construct: purchased Sigma-Aldrich; host or cells: porcine pancreas
Protocol: The capability of the extracts derived from the adult V. coerulea plant and its protocorms to inhibit elastase activities was evaluated through a spectrophotometric assay, which was modified from the methods described by Thring et al. (2009). Initially, an elastase solution at a concentration of 0.03 units/mL was prepared, comprising elastase sourced from porcine pancreas, along with 0.2 M Tris-HCl buffer pH 8.0. Subsequently, 10 µL of the sample solution was combined with 40 µL of the elastase solution. After the resulting mixture was incubated for 15 min at ambient temperature, 100 µL of 1.6 mM AAAVPN in tris HCl buffer pH 8.0 was introduced to initiate the enzymatic reaction. Immediately, the absorbance was measured kinetically at 410 nm for a duration of 20 min using a multimode microplate reader (BMG Labtech GmbH, Ortenberg, Germany). […] Various concentrations of each extract were evaluated, and their elastase inhibitions were plotted against their logarithmic concentrations to generate dose–response curves. The IC50 values were calculated from the curves using GraphPad Prism (version 8.0.2, GraphPad Software, Boston, MA, USA). […] was used as the positive control. The analysis was performed in triplicate.

[5] = test system: chorioallantoic membrane of fertilized hen eggs; assay: Hen's egg-chorioallantoic membrane (HET-CAM) irritation test; settings: 1% w/v, positive control
Protocol: The irritation potency of the extracts derived from the adult V. coerulea plant and its protocorms was evaluated through a HET-CAM test, which was previously described by Luepke and Kemper (1986). The fertilized black hen eggs from the Pradu Hang Dam Chiang Mai breed aged between 7 and 9 days were used in the HET-CAM test. As the embryos were in the early stages of development, ethical approval was not required. Typically, hen eggs require 21 days of incubation, and the fertilized eggs aged between 7 to 9 days, which was less than halfway through their incubation cycle, were not considered animals. Prior to the test, the eggshell above the air cell was cracked open, and the inner membrane was moistened with a normal saline solution. […] The duration until the first appearance of each irritation sign was meticulously monitored and recorded in seconds, which enabled the subsequent computation of the irritation score (IS) using the following equation:IS = [(301 − t(h))/300] × 5 + [(301 − t(l))/300] × 7 + [(301 − t(c))/300] × 9,(8) where t(h) is the time of the first appearance of hemorrhage in seconds, t(l) is the time of the first appearance of vascular lysis in seconds, and t(c) is the first appearance of vascular coagulation in seconds. […]

T1 sequence (P00772 27-266): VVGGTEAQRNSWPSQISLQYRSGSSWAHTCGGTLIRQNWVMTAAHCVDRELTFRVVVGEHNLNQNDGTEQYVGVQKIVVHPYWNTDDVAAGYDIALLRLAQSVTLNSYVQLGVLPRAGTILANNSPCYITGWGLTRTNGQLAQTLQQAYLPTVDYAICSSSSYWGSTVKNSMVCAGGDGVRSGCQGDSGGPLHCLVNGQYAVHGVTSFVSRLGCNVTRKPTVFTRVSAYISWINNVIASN

| Structure (SMILES) | IC50 Ferric Reducing Capacity [1] | IC50 DPPH Inhibition [2] | IC50 Collagenase Inhibition [3] | IC50 [4] [µM] | Irritation Level [5] | Irritation Score (IS) [5] | IC50 Elastase Inhibition [4] |
| --- | --- | --- | --- | --- | --- | --- | --- |
| O=C1O[C@H]([C@@H](O)CO)C(O)=C1O [AS, ascorbic acid] | 2.4 ± 0.7 ^a µg/mL | 3.5 ± 2.9 ^a µg/mL |  |  |  |  |  |
| C[C@@H]1O[C@@H](OC[C@H]2O[C@@H](Oc3c(-c4ccc(O)c(O)c4)oc4cc(O)cc(O)c4c3=O)[C@H](O)[C@@H](O)[C@@H]2O)[C@H](O)[C@H](O)[C@H]1O [RT, rutin] | 12.9 ± 2.0 ^b µg/mL | 3.2 ± 2.7 ^a µg/mL | 7.6 ± 3.4 ^a µg/mL | 17.2 |  |  |  |
| CCCCCCCCCCCCOS(=O)(=O)[O-].[Na+] [SLS, sodium lauryl sulfate] |  |  |  |  | Severe irritation (9.0–21.0 for severe irritation) | 15.13 ± 0.3 |  |
| O=C(O[C@@H]1Cc2c(O)cc(O)cc2O[C@@H]1c1cc(O)c(O)c(O)c1)c1cc(O)c(O)c(O)c1 [EGCG, epigallocatechin gallate] |  |  | 16.9 ± 3.2 ^b µg/mL |  |  |  | 0.1 ± 0.0 ^a µg/mL |

— PMC11243638, “Enhanced Antioxidant, Anti-Aging, Anti-Tyrosinase, and Anti-Inflammatory Properties of Vanda coerulea Griff. Ex Lindl. Protocorm through Elicitations with Chitosan” (Plants, 2024)
